Data as given in patent publication US10888505B2, “Dosage of foam for delivering consumer desired dosage volume, surfactant amount, and scalp health agent amount in an optimal formulation space” (The Procter & Gamble Company, priority 2016, dated 2021).
Like-named read-outs stand apart in the source and are kept apart here.

Test system: Malassezia furfur
Settings: inhibition of growth of the Malassezia fungus
Method: Malassezia furfur is grown in a flask containing mDixon medium (see E. Gueho, et. al. Antoninie Leeuwenhock (1996), no. 69, 337-55, which description is incorporated by reference herein). Dilutions of solubilized anti-microbial active or diluted products are then added to test tubes containing molten mDixon agar. M. furfur inoculum is added to each tube of molten agar, the tube vortexed, and the contents poured into separate sterile petri dishes. After the plates are incubated, they are observed for visible M. furfur growth. The lowest tested dilution of anti-microbial active or finished product that comprises that yields no growth is defined as the Minimal Inhibitory Concentration (MIC).

Minimum Inhibitory Concentration (MIC) (parts active per million parts product and dilution media): 5 ppm
Minimum Inhibitory Concentration (MIC) (same MIC expressed as g active per 100 g (product + dilution solution)): 0.0005 g/100 g
Structure (SMILES): [O-]n1ccccc1=S.[O-]n1ccccc1=S.[Zn+2] [ZPT, zinc salt of 1-hydroxy-2-pyridinethione]
